# Source: article PMC8012336, “An automated and high-throughput-screening compatible pluripotent stem cell-based test platform for developmental and reproductive toxicity assessment of small molecule compounds” (Cell Biology and Toxicology, 2020)
# Read-outs that look alike come from different tables or passages of the source.
# Experiments:
# mESC-D3 [1] = assay: Automated mESC-D3 differentiation assay in 96-well round-bottom ultra-low attachment plates (cardiomyocyte contraction, day 10); format: cell-based, mouse; details: beating cardiomyocytes at day 10, in brackets the two independent runs
# Method: The mESC-D3 differentiation assay was automated in 96-well round-bottom ultra-low attachment plates (Costar, Cat. No. 7007) on the lab automation platform Fluent (Tecan). The method was set up for testing up to three different compounds in an automated procedure, resulting in maximal 9 plates that were being processed. A 7-point dilution series of test compounds and control solutions were prepared in PBS or DMSO under the laminar flow, transferred to a 96-well 0.5 ml Masterblock plate, and placed on the Fluent worktable. There the compounds were further diluted in growth media in a 96-well 2 ml Masterblock plate using the FCA. Of the compound solution, 10 μl/well were dispensed into a 96-well round well ultra-low attachment plate. In the meantime, a suspension of mESC-D3 (3.75 × 10^4 cells/ ml) was prepared in growth media and was placed in a trough on the worktable. The cell suspension was transferred into the 96-well round-bottom ultra-low attachment plate (40 μl/well) using the FCA. After 2 days of incubation at 37 °C, 5% CO2, and 95% humidity fresh compound and control solutions were prepared and added to the 96-well U-bottom plate (200 μl/well). On day five of the assay freshly prepared compound and control solutions were dispensed into a 96-well imaging plate (200 μl/well, Greiner bio-one, Cat. No. 655866). Using the MCA, the supernatant was aspirated from the 96-well round-bottom ultra-low attachment plate, the EB at the bottom of the well was aspirated and transferred into the prefilled imaging plate. On day 7, the cell supernatant was partially replaced with a fresh compound solution. Therefore, the media was aspirated using the MCA and the fresh compound solution was dispensed with the FCA. After further 3 days of incubation (= day 10 of the assay) cardiomyocyte contraction was determined in each well under the light microscope. Afterward, cells were stained and analyzed using the Opera High Content Screening System (PerkinElmer).
# Toxicity data from the MTT and CellTiter-Glo Assay was normalized against the vehicle control (100% viability) and plotted against the logarithmic compound concentration.
# mESC-D3 [2] = assay: Conventional mouse ES-D3 differentiation assay in hanging drop format (petri dish; cardiomyocyte contraction, day 10); format: cell-based; details: manual; beating cardiomyocytes at day 10; in brackets the two individual experiments
# Method: Separate Petri dishes were used for each concentration of test compound, untreated control, and solvent control. […] The EB suspension was incubated for 2 days. On day five of the assay, a fresh compound dilution series was prepared in media and transferred into 24-well cell culture plates (1 ml/well, Greiner bio-one, Cat. No. 662641). A separate 24-well plate was used for each compound concentration, untreated control, and solvent control (24 wells per condition). One EB was transferred from the Petri dish into each well of the 24-well plate. After further 5 days of incubation (= day 10 of the assay), cardiomyocyte contraction was determined in each well under the light microscope.
# mESC-D3 [3] = format: cell-based, mouse; details: for ID50 FACS (MHC-positive cells): flow cytometry, day 7
# Method: As an alternative to the morphological analysis at day 10, differentiation can be analyzed at day 7 of the assay by flow cytometry using the molecular flow EST (Buesen et al. [2009]). Previously, staining of cardiomyocytes was performed using an unconjugated primary monoclonal antibody directed against the sarcomeric MHC (clone MF20), followed by binding of a secondary biotin-conjugated goat anti-mouse IgG antibody which is then detected with the fluorochrome PE-SA (phycoerythrin-conjugated streptavidin) (Seiler and Spielmann [2011]). […] Of note, these experiments were performed in parallel with the same batch of spontaneously differentiated mESCs.
# Embryoid bodies were formed in hanging drops (Petri dish) as already described. On day 5 of the assay, the EBs were transferred into a larger Petri dish and incubated for two more days at 37 °C, 5% CO2, and 95% humidity. Afterward, the EBs were dissociated using the Embryoid Body Dissociation Kit (Miltenyi Biotec, Cat. No. 130-096-348). EBs from two Petri dishes were harvested in one 15 ml tube and washed once with 10 ml PBS. The supernatant was discarded after centrifugation and a pre-warmed enzyme mix was added. The EB/enzyme mix was incubated for 10 min at 37 °C, dissociated for 1 min with a 1000 μl pipette, incubated for 5 min and mechanically dissociated again for 1 min. After the addition of 3 ml PBS, the cell suspension was passed through a 70-μm filter into a new 15-ml tube. The filter was then washed with 3 ml PBS and discarded afterward. The cell suspension was centrifuged for 5 min at 300 rpm. The supernatant was discarded afterward, cells were suspended in PBS and counted. For viability staining, 10^6 cells were suspended in 100 μl staining reagent (LIVE/DEAD™ Fixable Green Dead Stain Kit, Life Technologies, Cat. No. L34969), incubated for 30 min at 4 °C and washed with 1 ml PBS. For fixation, cells were suspended in 100 μl fixation buffer (BioLegend, Cat. No. 420801) and incubated 20 min at room temperature. For the intracellular staining, cells were washed twice with 1 ml permeabilization buffer (BioLegend, Cat. No. 421002) and suspended in 50 μl permeabilization buffer supplemented with 50 μl of pre-diluted (1:5) antibody (mouse IgG2B anti-human Myosin Heavy Chain APC-conjugated, mouse IgG2B APC-conjugated isotype control, R&D Systems, Cat. No. IC4470A). After 1 h incubation at room temperature cells were washed twice with 1 ml permeabilization buffer and suspended in FACS buffer. Within 2–3 h samples were measured on an LSR II flow cytometer (Beckton Dickinson). Data analysis was done using FlowJo software (Version 10.0.8; Tree Star).
# [4] = test system: mESC-D3 and NIH/3T3 cells; details: for Compound classification (Seiler and Spielmann [2011]): automated mouse EST assay; for Compound classification: manual murine EST assay, prediction model of Seiler and Spielmann 2011
# mESC-D3 [5] = test system: mESC-D3; design: method as in Scholz et al. [1999]; details: ZEBET value, 7 d result; ref Scholz et al. [1999]; cited from earlier work
# NIH/3T3 = test system: NIH/3T3; design: method as in Scholz et al. [1999]; details: ZEBET value, 7 d result; ref Scholz et al. [1999]; cited from earlier work
# mESC-D3 [6] = test system: mESC-D3; design: method as in Scholz et al. [1999]; details: ZEBET value printed beside hanging drop differentiation result; ref Scholz et al. [1999]; cited from earlier work
Compound,Differentiation assay in round bottom ULA microplate ID50 mESC-D3 (mESC-D3 [1]),Differentiation assay in round bottom ULA microplate ID50 mESC-D3 (mESC-D3 [1]; listed as hydroxyurea) [µg/mL],Differentiation assay in hanging drop (petri dish) ID50 mESC-D3 (mESC-D3 [2]),ID50 FACS (MHC-positive cells) (mESC-D3 [3]) [µg/mL],"MHC-positive cells (mESC-D3 [3]; treated with 10 μg/ml, untreated 31% (hydroxyurea), 26% (fumonisine B1)) [%]",Compound classification (Seiler and Spielmann [2011]) [4],Compound classification [4],IC50 mESC-D3 (ZEBET) (mESC-D3 [5]) [µg/mL],IC50 NIH/3T3 (ZEBET) (NIH/3T3) [µg/mL],ID50 mESC-D3 (ZEBET) (mESC-D3 [6]) [µg/mL],Differentiation assay in round bottom ULA microplate ID50 mESC-D3 (mESC-D3 [1]; listed as saccharin) [µg/mL],"MHC-positive cells (mESC-D3 [3]; treated with 1000 μg/ml, untreated 25%) [%]"
"NC(=O)NO [Hydroxyurea, hydroxyurea]",2.69 (2.86; 2.52) μg/ml,2.69,2.55 (2.56; 2.54) µg/ml,5.65,4,Strong embryotoxicity,strong embryotoxicity,2.0,7.2,1.7,,
"O=C1NS(=O)(=O)c2ccccc21 [Saccharin, saccharin]",> 1000 (> 1000; > 1000) μg/ml,,1000 (> 1000; > 1000) µg/ml,> 1000,,No embryotoxicity,no embryotoxicity,3498,3000,2000,> 1000,19
